Here are results for five compounds from US20260325561A1, “4'-SUBSTITUTED NUCLEOSIDES AND NUCLEOTIDES AS ANTIVIRAL AGENTS” (THE SCRIPPS RESEARCH INSTITUTE, priority 2023, published 2026).

The conditions of data set [1]: mouse or rhesus monkey model; cited from earlier work.
The subject of data set [2] is RNA virus infections. The following applies: cited from earlier work.
In data set [3] the test system is dengue. The following applies: cited from earlier work.
Data set [4] relates to dengue 2′-0-methyltransferase NS5 domain. The following applies: role: inhibitor; cited from earlier work.
For data set [5], the system named is dengue. The following applies: cited from earlier work. This is another data set of the same source.
In data set [6] the test system is dengue. The settings on record: cited from earlier work. This is another data set of the same source.
Data set [7] deals with HRV 14. As to the kind of experiment: microbe, parasite or virus in culture. The data set is classed as cell-based, Human Rhinovirus 14 strain 1059. The following applies: Rhinovirus B, H1-HeLa, 48 h, read-out: HRV / H1 HeLa B 14 EC50.
Data set [8] can be described thus: in vitro. The following applies: human, hepg2 cells.
In data set [9] the test system is YFV. The experiment in a line: microbe, parasite or virus in culture. In kind it is cell-based, YFV strain 17D. The settings on record: Yellow fever virus, HepG2, 24 h, read-out: YFV / HepG2 EC50.
Data set [10] in a line: in vitro. The following applies: human, hela-ace2 cells.
Data set [11] concerns HCoV-229E. The experiment in a line: microbe, parasite or virus in culture. In kind it is cell-based. The following applies: Human coronavirus 229E, MRC5, 120 h, read-out: HCoV-229E/MRC5 EC50.
Data set [12] can be described thus: Cytotoxicity, HFF. The data set is classed as cell-based. The settings on record: human, hff cells; read-out: HCMV/HFF CC50.
Data set [13] is described as follows: in vitro. The settings on record: human, hep2 cells.
In data set [14] the test system is HCoV-OC43. The experiment in a line: microbe, parasite or virus in culture. The settings on record: Betacoronavirus 1, OC43, HCT-8, 48 h, read-out: HCoV-OC43/HCT-8 EC50. In kind it is cell-based, Human Coronavirus.
Data set [15] can be described thus: in vitro. The settings on record: human, h1 hela cells.
Data set [16] deals with HRV 16. The experiment in a line: microbe, parasite or virus in culture. The data set is classed as cell-based, Human Rhinovirus 16 strain 11757. The following applies: Rhinovirus A, H1-HeLa, 48 h, read-out: HRV / H1 HeLa A16 EC50.
The nature of data set [17]: in vitro. The settings on record: human, hct-8 cells.
A short description of data set [18]: in vitro. The settings on record: human, mrc5 cells.
Data set [19] deals with HCMV. The experiment in a line: HCMV/HFF antiviral assay. In kind it is cell-based. The settings on record: Human betaherpesvirus 5, HFF.
Data set [20] deals with SARS-CoV-2. The experiment in a line: microbe, parasite or virus in culture. The data set is classed as cell-based, SARS-CoV-2 strain USA-WA1/2020. The following applies: Severe acute respiratory syndrome coronavirus 2, HeLa-ACE2, 24 h, read-out: SARS-CoV-2 / HeLa-ACE2 EC50.
The subject of data set [21] is DENV-2. The experiment in a line: microbe, parasite or virus in culture. The data set is classed as cell-based, DENV-2 16681. The following applies: Dengue virus, DENV2, HepG2, 24 h, read-out: DENV-2 / HepG2 EC50.
Data set [22] relates to ZIKV. The experiment in a line: microbe, parasite or virus in culture. In kind it is cell-based, ZIKV MR766. The following applies: Zika virus, HepG2, 24 h, read-out: ZIKV / HepG2 EC50.
Data set [23] has as its system RSV A2. As to the kind of experiment: microbe, parasite or virus in culture. The following applies: human respiratory syncytial virus, HEp-2, 72 h, read-out: RSV A2 / Hep2 EC50. The data set is classed as cell-based.
Data set [24] has as its system CHIKV. The experiment in a line: microbe, parasite or virus in culture. In kind it is cell-based, CHIKV strain 181/25. The following applies: Chikungunya virus, HepG2, 24 h, read-out: CHIKV / HepG2 EC50.

For `NC(=O)c1ncn([C@@H]2O[C@H](CO)[C@@H](O)[C@H]2O)n1` [Ribavirin], the adverse effects induced entry in data set [1] was “induced anemia and thrombocytosis”. For the same compound, the “effect against a range of RNA virus infections” value in data set [2] is on record as “effective”. The “activity against dengue in tissue culture” value in data set [3] is “works against dengue in tissue culture”. Also, the “inhibition of dengue 2′-0-methyltransferase NS5 domain” value in data set [4] is given as “inhibiting”. Moreover, the “protection against dengue, rhesus monkey model” value in data set [5] is “did not show protection”. Also, the “protection against dengue, mouse model” value in data set [6] is “did not show protection”.

Take `NC(=O)c1cn([C@@H]2O[C@](F)(CO)[C@@H](O)[C@H]2O)c2ncncc12` [Example 24, 7-((2R,3R,4S,5S)-5-fluoro-3,4-dihydroxy-5-(hydroxymethyl)tetrahydrofuran-2-yl)-7H-pyrrolo[2,3-d]pyrimidine-5-carboxamide]: the EC50 is 1 to 10 µM in data set [7]; 0.1 to 1 µM in data set [9]; > 10 µM in data set [11]; 0.1 to 1 µM in data set [14]; > 10 µM in data set [16]; > 10 µM in [19]. The EC50 in [20] was 0.1 to 1 µM; in data set [21], < 0.1 µM; in [22], 0.1 to 1 µM; in data set [23] it was 0.1 to 1 µM. In [8], the CC50 at 72 h fell in the range of 1 to 10 µM. In data set [10], the CC50 at 24 h lay within 1 to 10 µM. Also, the CC50 in data set [12] is 10 to 99 µM; in [13], 10 to 99 µM; in data set [15], 10 to 99 µM; in [17] it was 10 to 99 µM; in data set [18], > 99 µM.

As for `OC[C@@]1(F)O[C@@H](n2ccc3c(Cl)ncnc32)[C@H](O)[C@@H]1O` [Example 4, (2S,3S,4R,5R)-5-(4-chloro-7H-pyrrolo[2,3-d]pyrimidin-7-yl)-2-fluoro-2-(hydroxymethyl)tetrahydrofuran-3,4-diol], the EC50 in data set [7] was 0.1 to 1 µM; in data set [24], 0.1 to 1 µM; in data set [9], < 0.1 µM; in data set [11], > 10 µM; in data set [14], 0.1 to 1 µM; in data set [16], 0.1 to 1 µM. For the same compound, the EC50 in data set [19] was > 10 µM; in data set [20], 1 to 10 µM; in data set [21], < 0.1 µM; in data set [22], 0.1 to 1 µM; in [23], 0.1 to 1 µM. Moreover, in [8], the CC50 at 72 h lay in the range of 10 to 99 µM. Besides, the CC50 at 24 h in data set [10] fell in the range of 10 to 99 µM. The CC50 was 10 to 99 µM in [12]; 10 to 99 µM in data set [13]; 10 to 99 µM in data set [15]; 10 to 99 µM in [17]; > 99 µM in data set [18].

For the compound `OC[C@@]1(F)O[C@@H](n2cc(Br)c3cncnc32)[C@H](O)[C@@H]1O` [Example 25, (2S,3S,4R,5R)-5-(5-bromo-7H-pyrrolo[2,3-d]pyrimidin-7-yl)-2-fluoro-2-(hydroxymethyl)tetrahydrofuran-3,4-diol], the EC50 was > 10 µM in data set [7]; < 0.1 µM in [9]; > 10 µM in data set [11]; 0.1 to 1 µM in data set [14]; > 10 µM in data set [16]; 1 to 10 µM in data set [19]. Moreover, the EC50 in [20] is 0.1 to 1 µM; in data set [21], < 0.1 µM; in [22], < 0.1 µM; in data set [23], 0.1 to 1 µM. For the same compound, the CC50 at 72 h in data set [8] is < 1 µM. Moreover, the CC50 at 24 h in data set [10] is < 1 µM. For the same compound, the CC50 in data set [12] is > 99 µM; in data set [13], 10 to 99 µM; in [15], 1 to 10 µM; in data set [17] it was < 1 µM; in [18], > 99 µM.

As to `O=c1[nH]cnc2c1c(F)cn2[C@@H]1O[C@](F)(CO)[C@@H](O)[C@H]1O` [Example 21, 5-fluoro-7-((2R,3R,4S,5S)-5-fluoro-3,4-dihydroxy-5-(hydroxymethyl)tetrahydrofuran-2-yl)-3,7-dihydro-4H-pyrrolo[2,3-d]pyrimidin-4-one], the EC50 in data set [7], in [9], in data set [11], in data set [14], in data set [16] and in data set [20] was > 10 µM in each case. For the same compound, the EC50 in [21], in data set [22] and in data set [23] was > 10 µM throughout. Also, in [8], the CC50 at 72 h is > 99 µM. Moreover, the CC50 at 24 h in [10] is > 99 µM. The CC50 in data set [13], in data set [15], in data set [17] and in data set [18] was > 99 µM each time.
